Laboratory results taken from ChEMBL document CHEMBL3232855, “The discovery of N-((2H-tetrazol-5-yl)methyl)-4-((R)-1-((5r,8R)-8-(tert-butyl)-3-(3,5-dichlorophenyl)-2-oxo-1,4-diazaspiro[4.5]dec-3-en-1-yl)-4,4-dimethylpentyl)benzamide (SCH 900822): a potent and selective glucagon receptor antagonist” (J Med Chem, 2014).
Each block holds one molecule with its values, some of them ahead of it.

Tests used:
[1] = biological target: T1, Glucagon-like peptide 1 receptor (Homo sapiens, UniProt P43220); conditions: CHO, at 10 µM
T1 sequence (P43220 whole entry): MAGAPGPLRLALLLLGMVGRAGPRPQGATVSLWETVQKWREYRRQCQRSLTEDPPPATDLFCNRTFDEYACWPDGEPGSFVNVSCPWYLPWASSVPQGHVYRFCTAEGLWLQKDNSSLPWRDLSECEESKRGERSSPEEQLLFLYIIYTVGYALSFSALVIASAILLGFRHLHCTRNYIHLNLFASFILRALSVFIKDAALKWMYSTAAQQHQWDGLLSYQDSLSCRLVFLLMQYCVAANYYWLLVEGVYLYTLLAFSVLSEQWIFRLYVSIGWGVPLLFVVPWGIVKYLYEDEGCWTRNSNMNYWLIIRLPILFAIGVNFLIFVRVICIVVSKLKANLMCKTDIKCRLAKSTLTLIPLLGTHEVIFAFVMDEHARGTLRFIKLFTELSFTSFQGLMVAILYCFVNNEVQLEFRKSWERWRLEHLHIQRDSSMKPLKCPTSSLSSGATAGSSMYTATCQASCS
Description: Antagonist activity at human GLP-1R expressed in CHO cells assessed as inhibition of GLP-1-stimulated cAMP production at 10 uM preincubated for 30 mins followed by GLP-1 induction measured after 45 mins by LANCE assay relative to control

[2] = biological target: T2, Glucagon receptor (Homo sapiens, UniProt P47871); test: biochemical; format: cell-based, CHO
T2 sequence (P47871 whole entry): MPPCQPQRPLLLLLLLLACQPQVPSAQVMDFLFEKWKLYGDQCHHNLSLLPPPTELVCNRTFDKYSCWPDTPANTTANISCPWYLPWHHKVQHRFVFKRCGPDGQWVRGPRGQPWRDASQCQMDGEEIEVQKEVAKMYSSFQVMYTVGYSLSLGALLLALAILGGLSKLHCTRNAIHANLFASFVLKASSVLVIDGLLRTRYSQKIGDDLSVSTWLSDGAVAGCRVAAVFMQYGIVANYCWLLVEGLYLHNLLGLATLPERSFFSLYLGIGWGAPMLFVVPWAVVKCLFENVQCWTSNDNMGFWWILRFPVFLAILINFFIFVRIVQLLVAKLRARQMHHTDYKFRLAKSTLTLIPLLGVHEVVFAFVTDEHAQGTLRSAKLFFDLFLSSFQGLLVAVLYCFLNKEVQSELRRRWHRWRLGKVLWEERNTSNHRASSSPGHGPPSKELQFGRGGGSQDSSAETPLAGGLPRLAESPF
Description: Displacement of [125I]-glucagon from recombinant human GCGR expressed in CHO cells after 60 mins by scintillation counting analysis

[3] = biological target: Glucagon receptor (Mus musculus, UniProt Q61606); format: cell membranes, Liver, Membrane
Glucagon receptor (Mus musculus, UniProt Q61606), sequence (Q61606 whole entry): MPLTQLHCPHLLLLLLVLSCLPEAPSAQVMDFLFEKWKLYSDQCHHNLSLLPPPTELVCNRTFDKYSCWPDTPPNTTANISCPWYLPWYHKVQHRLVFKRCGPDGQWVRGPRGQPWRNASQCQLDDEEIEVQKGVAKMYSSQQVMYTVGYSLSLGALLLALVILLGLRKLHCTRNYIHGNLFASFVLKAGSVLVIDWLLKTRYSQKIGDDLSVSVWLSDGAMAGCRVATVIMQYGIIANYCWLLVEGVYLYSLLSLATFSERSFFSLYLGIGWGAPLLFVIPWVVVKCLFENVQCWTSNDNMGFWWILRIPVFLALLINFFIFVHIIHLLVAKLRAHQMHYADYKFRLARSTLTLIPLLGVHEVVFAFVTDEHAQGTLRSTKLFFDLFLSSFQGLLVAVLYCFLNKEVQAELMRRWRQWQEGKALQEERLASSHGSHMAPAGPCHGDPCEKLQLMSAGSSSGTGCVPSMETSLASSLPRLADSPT
Description: Displacement of [125I]-glucagon from GCGR in mouse liver membranes after 60 mins by scintillation counting analysis

[4] = biological target: T2, Glucagon receptor; test: Antagonist activity at human GCGR expressed in CHO cells assessed as inhibition of glucagon-stimulated cAMP production preincubated for 30 mins followed by glucagon induction measured after 45 mins by LANCE assay; format: functional, cell-based
[5] = system: Homo sapiens; test: Antidiabetic activity in human assessed as inhibition of exogenous glucagon-stimulated glucose excursion at 1000 mg, po qd relative to control; format: functional
[6] = system: Homo sapiens; test: Antidiabetic activity in human assessed as inhibition of exogenous glucagon-stimulated glucose excursion at 200 mg, po qd relative to control; format: functional
[7] = biological target: T1, Glucagon-like peptide 1 receptor; test: Antagonist activity at human GLP-1R expressed in CHO cells assessed as inhibition of GLP-1-stimulated cAMP production preincubated for 30 mins followed by GLP-1 induction measured after 45 mins by LANCE assay; format: functional, cell-based

inhibition [1]: < 50% | IC50 [2]: 940 nM | IC50 [3]: > 10000 nM | IC50 [4]: 1400 nM
SMILES: CC(C)(C)[C@H]1CC[C@]2(CC1)N=C(c1ccc(Cl)cc1)C(=O)N2Cc1ccc(C(=O)NCCC(=O)O)cc1

inhibition [1]: < 50% | IC50 [3]: 10000 nM | IC50 [4]: 510 nM
SMILES: CC(C)(C)[C@H]1CC[C@]2(CC1)N=C(c1cccc(C(F)(F)F)c1)C(=O)N2Cc1ccc(C(=O)NCCC(=O)O)cc1

inhibition [1]: < 50% | IC50 [3]: 9600 nM | IC50 [4]: 800 nM
SMILES: CC(C)(C)[C@H]1CC[C@]2(CC1)N=C(c1ccc(C(F)(F)F)cc1)C(=O)N2Cc1ccc(C(=O)NCCC(=O)O)cc1

IC50 [2]: 170 nM | IC50 [3]: 2800 nM | IC50 [7]: > 10 µM | IC50 [4]: 910 nM
SMILES: C[C@H](c1ccc(C(=O)NCCC(=O)O)cc1)N1C(=O)C(c2ccc(C(F)(F)F)cc2)=N[C@]12CC[C@@H](C(C)(C)C)CC2

IC50 [2]: 55 nM | IC50 [3]: 500 nM | IC50 [7]: > 10 µM | IC50 [4]: 220 nM
SMILES: CCC[C@H](c1ccc(C(=O)NCc2nn[nH]n2)cc1)N1C(=O)C(c2cc(Cl)cc(Cl)c2)=N[C@]12CC[C@@H](C(C)(C)C)CC2

inhibition [1]: < 50% | IC50 [2]: 520 nM | IC50 [3]: > 10000 nM | IC50 [4]: 290 nM
SMILES: CC(C)(C)[C@H]1CC[C@]2(CC1)N=C(c1cc(Cl)cc(Cl)c1)C(=O)N2Cc1ccc(C(=O)NCCC(=O)O)cc1

IC50 [2]: 120 nM | IC50 [3]: 6100 nM | IC50 [7]: > 10 µM | IC50 [4]: 530 nM
SMILES: C[C@H](CC(=O)O)NC(=O)c1ccc([C@@H](CCC(C)(C)C)N2C(=O)C(c3cc(Cl)cc(Cl)c3)=N[C@]23CC[C@@H](C(C)(C)C)CC3)cc1

IC50 [2]: 22 nM | IC50 [3]: 96 nM | IC50 [7]: > 10 µM | IC50 [4]: 1200 nM
SMILES: CC(C)(C)CC[C@H](c1ccc(C(=O)NCc2nn[nH]n2)cc1)N1C(=O)C(c2cnccc2C(F)(F)F)=N[C@]12CC[C@@H](C(C)(C)C)CC2

IC50 [2]: 14 nM | IC50 [3]: 130 nM | IC50 [7]: > 10 µM | IC50 [4]: 130 nM
SMILES: CC(C)(C)CC[C@H](c1ccc(C(=O)NCc2nn[nH]n2)cc1)N1C(=O)C(c2cccc(Cl)c2)=N[C@]12CC[C@@H](C(C)(C)C)CC2

IC50 [2]: 85 nM | IC50 [3]: 2500 nM | IC50 [7]: 7.8 µM | IC50 [4]: 430 nM
SMILES: C[C@H](c1ccc(C(=O)NCCC(=O)O)cc1)N1C(=O)C(c2ccc(F)cc2)=N[C@]12CC[C@@H](C(C)(C)C)CC2

IC50 [2]: 720 nM | IC50 [3]: 2200 nM | IC50 [7]: 6.3 µM | IC50 [4]: 280 nM
SMILES: C[C@H](c1ccc(C(=O)NCCC(=O)O)cc1)N1C(=O)C(c2cccc(C(F)(F)F)c2)=N[C@]12CC[C@@H](C(C)(C)C)CC2

IC50 [2]: 190 nM | IC50 [3]: 1100 nM | IC50 [7]: > 10 µM | IC50 [4]: > 10000 nM
SMILES: C[C@H](c1ccc(C(=O)NC[C@@H](O)C(=O)O)cc1)N1C(=O)C(c2cc(Cl)cc(Cl)c2)=N[C@]12CC[C@@H](C(C)(C)C)CC2

inhibition [1]: < 50% | IC50 [4]: 3200 nM
SMILES: CC(C)(C)[C@H]1CC[C@]2(CC1)N=C(c1ccccc1)C(=O)N2Cc1ccc(C(=O)NCCC(=O)O)cc1

IC50 [2]: 23 nM | IC50 [3]: 140 nM | IC50 [7]: > 10 µM | IC50 [4]: 110 nM
SMILES: CC(C)(C)CC[C@H](c1ccc(C(=O)NCc2nn[nH]n2)cc1)N1C(=O)C(c2cc(F)cc(F)c2)=N[C@]12CC[C@@H](C(C)(C)C)CC2

inhibition [1]: 9% | IC50 [2]: 130 nM | IC50 [3]: 400 nM | IC50 [7]: > 10 µM | IC50 [4]: 180 nM
SMILES: C[C@H](c1ccc(C(=O)NCc2nnn[nH]2)cc1)N1C(=O)C(c2cc(Cl)cc(Cl)c2)=N[C@]12CC[C@@H](C(C)(C)C)CC2

IC50 [2]: 520 nM | IC50 [3]: 5400 nM | IC50 [7]: > 10 µM | IC50 [4]: 2900 nM
SMILES: C[C@H](c1ccc(C(=O)NCCC(=O)O)cc1)N1C(=O)C(c2ccccc2Cl)=N[C@]12CC[C@@H](C(C)(C)C)CC2

IC50 [2]: 38 nM | IC50 [3]: 84 nM | IC50 [7]: > 10 µM | IC50 [4]: 480 nM
SMILES: CC(C)(C)CC[C@H](c1ccc(C(=O)NCc2nn[nH]n2)cc1)N1C(=O)C(c2cncc(Cl)c2)=N[C@]12CC[C@@H](C(C)(C)C)CC2

IC50 [2]: 44 nM | IC50 [3]: 2300 nM | IC50 [7]: 4.3 µM | IC50 [4]: 440 nM
SMILES: C[C@H](c1ccc(C(=O)NCCC(=O)O)cc1)N1C(=O)C(c2ccc(F)c(Cl)c2)=N[C@]12CC[C@@H](C(C)(C)C)CC2

Continued, molecule first:

SMILES: CCCc1c(C(C)C)cc(C(C)C)c(C(C)O)c1-c1ccc(F)cc1 (single isomer, unassigned; (+))
inhibition (INH) [5]: 100% | inhibition (INH) [6]: 59%

SMILES: CC(C)(C)[C@H]1CC[C@]2(CC1)N=C(c1ccc(OC(F)(F)F)cc1)C(=O)N2Cc1ccc(C(=O)NCCC(=O)O)cc1
inhibition [1]: < 50% | IC50 [4]: 1900 nM

SMILES: CC(C)(C)[C@H]1CC[C@]2(CC1)N=C(c1ccccc1F)C(=O)N2Cc1ccc(C(=O)NCCC(=O)O)cc1
inhibition [1]: < 50% | IC50 [2]: > 10000 nM | IC50 [3]: > 10000 nM | IC50 [4]: 730 nM

SMILES: CC(C)(C)[C@H]1CC[C@]2(CC1)N=C(c1ccc(Cl)c(Cl)c1)C(=O)N2Cc1ccc(C(=O)NCCC(=O)O)cc1
inhibition [1]: < 50% | IC50 [4]: 1600 nM

SMILES: CC(C)C[C@H](c1ccc(C(=O)NCc2nn[nH]n2)cc1)N1C(=O)C(c2cc(Cl)cc(Cl)c2)=N[C@]12CC[C@@H](C(C)(C)C)CC2
IC50 [2]: 15 nM | IC50 [3]: 420 nM | IC50 [7]: > 10 µM | IC50 [4]: 760 nM

SMILES: CC(C)(C)CC[C@H](c1ccc(C(=O)NCc2nn[nH]n2)cc1)N1C(=O)C(c2ccc(C(F)(F)F)cc2)=N[C@]12CC[C@@H](C(C)(C)C)CC2
IC50 [2]: 7 nM | IC50 [3]: 190 nM | IC50 [7]: > 10 µM | IC50 [4]: 160 nM

SMILES: CC(C)(C)[C@H]1CC[C@]2(CC1)N=C(c1ccccc1Cl)C(=O)N2Cc1ccc(C(=O)NCCC(=O)O)cc1
inhibition [1]: < 50% | IC50 [4]: 6800 nM

SMILES: C[C@H](c1ccc(C(=O)NCCC(=O)O)cc1)N1C(=O)C(c2cccc(OC(F)(F)F)c2)=N[C@]12CC[C@@H](C(C)(C)C)CC2
IC50 [2]: 330 nM | IC50 [3]: 1500 nM | IC50 [7]: 2.2 µM | IC50 [4]: 840 nM

SMILES: CC(C)(C)[C@H]1CC[C@]2(CC1)N=C(c1cccc(Cl)c1)C(=O)N2Cc1ccc(C(=O)NCCC(=O)O)cc1
inhibition [1]: < 50% | IC50 [2]: 770 nM | IC50 [3]: > 10000 nM | IC50 [4]: 770 nM

SMILES: CC(C)CC[C@H](c1ccc(C(=O)NCc2nn[nH]n2)cc1)N1C(=O)C(c2cc(Cl)cc(Cl)c2)=N[C@]12CC[C@@H](C(C)(C)C)CC2
IC50 [2]: 22 nM | IC50 [3]: 280 nM | IC50 [7]: > 10 µM | IC50 [4]: 150 nM

SMILES: C[C@H](c1ccc(C(=O)NCCC(=O)O)cc1)N1C(=O)C(c2cc(Cl)cc(Cl)c2)=N[C@]12CC[C@@H](C(C)(C)C)CC2
IC50 [2]: 96 nM | IC50 [3]: 1200 nM | IC50 [7]: 6.4 µM | IC50 [4]: 140 nM

SMILES: CCCCC[C@H](c1ccc(C(=O)NCc2nn[nH]n2)cc1)N1C(=O)C(c2cc(Cl)cc(Cl)c2)=N[C@]12CC[C@@H](C(C)(C)C)CC2
IC50 [2]: 24 nM | IC50 [3]: 310 nM | IC50 [7]: > 10 µM | IC50 [4]: 130 nM

SMILES: CC(C)(C)CC[C@H](c1ccc(C(=O)NCc2nn[nH]n2)cc1)N1C(=O)C(c2cccc(F)c2)=N[C@]12CC[C@@H](C(C)(C)C)CC2
IC50 [2]: 21 nM | IC50 [3]: 100 nM | IC50 [7]: > 10 µM | IC50 [4]: 140 nM

SMILES: COc1ccc2cc(-c3cc(-c4cc(Cl)cc(Cl)c4)nn3[C@@H](C)c3ccc(C(=O)NCCC(=O)O)cc3)ccc2c1 [MK-0893]
inhibition (INH) [5]: 100% | inhibition (INH) [6]: 59%

SMILES: C[C@H](c1ccc(C(=O)NCCC(=O)O)cc1)N1C(=O)C(c2cc(F)cc(Cl)c2)=N[C@]12CC[C@@H](C(C)(C)C)CC2
IC50 [2]: 6 nM | IC50 [3]: 810 nM | IC50 [7]: 5.6 µM | IC50 [4]: 110 nM

SMILES: CC(C)(C)CC[C@H](c1ccc(C(=O)NCc2nn[nH]n2)cc1)N1C(=O)C(c2ccc(F)cc2)=N[C@]12CC[C@@H](C(C)(C)C)CC2
IC50 [2]: 13 nM | IC50 [3]: 90 nM | IC50 [7]: > 10 µM | IC50 [4]: 240 nM

SMILES: CC(C)(C)[C@H]1CC[C@]2(CC1)N=C(c1ccc(F)cc1)C(=O)N2Cc1ccc(C(=O)NCCC(=O)O)cc1
inhibition [1]: < 50% | IC50 [4]: 1900 nM
